A short description of data set [1]: Acute toxicity in sc dosed mouse. It counts as organism-based. As to conditions: in vivo.
The subject of data set [2] is Panel NCI-60 (60 carcinoma cell lines). Briefly: Cytotoxicity against human NCI60 cells. Format: functional.
Data set [3] is described as follows: Acute toxicity in iv dosed mouse. The settings on record: in vivo. It counts as organism-based.
The nature of data set [4]: Cytotoxicity against mouse P388/R cells after 72 hrs by MTT assay. It counts as functional, cell-based. The settings on record: P388, 72 h. Background: Tetrazolium assays rely on reduction of a dye to a coloured formazan, in cell work by metabolically active cells.
In the next data set the test system is Plasmodium falciparum. Briefly: Antimalarial activity against Plasmodium falciparum K1 by [3H]-hypoxanthine incorporation assay. It counts as functional, organism-based.
Data set [5] deals with Mycobacterium tuberculosis. Briefly: Antibacterial activity against Mycobacterium tuberculosis H37Ra by microplate alamar blue assay. Format: functional, organism-based.

In brackets after ≈: the same amount, converted by molar mass.

The text below walks through data of ChEMBL document CHEMBL4368934, “Chemistry and biology of ophiobolin A and its congeners” (Bioorg Med Chem Lett, 2019).

One may read the LD50 as the dose expected to kill half of the subjects tested. Low readings indicate a more toxic substance, high ones a less toxic substance. For orientation: GI50 means the concentration giving 50% growth inhibition. The low end stands for greater sensitivity of the cells, the high end for lower sensitivity of the cells. Take `CC(C)=C[C@H]1C[C@H](C)[C@]2(CC[C@]3(C)C[C@H]4[C@H](C(=O)C[C@@]4(C)O)/C(C=O)=C\C[C@H]32)O1` [OPHIOBOLIN A]: the values for the LD50 in data set [1] and in data set [3] were 238 mg/kg and 12 mg/kg, respectively. Moreover, the 50% growth inhibitory concentration (GI50) in data set [2] amounted to 72 nM. Moreover, the CC50 in data set [2] (read-out: LC50 (the source's name)) came to 629 nM.
Broadly, the IC50 is the concentration needed to halve the response being measured. Lower therefore signals higher potency. As to `CC(C)=C/C=C/[C@H](C)C1=CC[C@]2(C)C[C@H]3[C@H](C(=O)C[C@@]3(C)O)/C(C=O)=C\C[C@@H]12`, the IC50 in data set [4] fell in the range of 270 to 650 nM.
As for `C/C(=C\[C@H](O)[C@@H](O)[C@H](C)[C@H]1CC[C@@]2(C)C[C@@H]3[C@H](C)CC(=O)[C@@H]3/C(C=O)=C\C[C@H]12)C(=O)O`, the 50% inhibitory concentration (IC50) in the data set on Plasmodium falciparum worked out at 13 µg/mL (≈ 30.1 µM); in data set [5], 200 µg/mL (≈ 462 µM).
